# Columns and labels:
# [1] = test system: Ng strains 1291 and (MDR) WHO-M; test: Modified gentamicin survival assay, drug added to established Ng infection of PEX cells; type: cell-based, Neisseria gonorrhoeae
# Protocol: Modified gentamicin survival assays were performed in which pex cells were challenged with our preferred laboratory Ng strain, 1291, or the MDR Ng strain, WHO-M (beta-lactam-, ciprofloxacin-, and rifampicin-resistant; plus a mtrR mutation that could effect resistance to other compounds (35)). Infections were allowed to proceed for 90 min to allow Ng to adhere to and invade PEX cells. Vehicle control, AR-12, ceftriaxone, or gentamicin was then added to established infections.
# At the indicated times post-challenge, the infection medium was removed, the PEX cell monolayers were rinsed and lysed, and viable Ng were enumerated by counting CFUs after plating serial dilutions of the PEX cell lysates. The percentage of Ng that survived the test treatment was determined as a function of the infection inoculum. In this aspect, the units are colony forming units—percent survival calculated as: [(#CFU (x dilution factor)) divided by (number of bacteria used as the infection inoculum (˜typically 1×10^7 bacteria per ml))×100]. A significant reduction (at least about 300 fold) in viable Ng was observed following a 3-hour incubation with 10 μM AR-12 (FIG. 2A).
# Concentrations of AR-12 tested are shown on the x-axis. “None” refers to vehicle control.
# Ng = test: Antimicrobial disk diffusion assays; parameters: species or system Neisseria gonorrhoeae; conditions: no human cells
# Excerpt: This effect was specific to infection of human cells in that AR-12 was not effective against the Ng by antimicrobial disk diffusion assays, which prohibit Ng growth on agar plates.
# [2] = Phase I oncology study of AR-12; type: in vivo, human
# Excerpt: AR-12 was originally investigated in a Phase I oncology study (27), an IND (IND #103799) was previously filed with the Food and Drug Administration (FDA), and an Investigational Medicinal Product Dossier (IMPD) was filed with the Medicines and Healthcare Products Regulatory Agency (MHRA Reference: 35725/0001/001-0001 [EudraCT Number: 2009-014285-25]) in the United Kingdom, which enabled the Phase I study entitled: “A Phase I Study of AR-12 (2-Amino-N-[4-[5-(2-phenanthrenyl)-3-(trifluoromethyl)-1H-pyrazol-1-yl]phenyl]-acetamide) in Adult Patients With Advanced or Recurrent Solid Tumors or Lymphoma, for Which No Standard Therapy Is Available”. […] Thirty-five patients were enrolled at nine dose levels. With the original formulation tested, the recommended oncology Phase II dose was 800 mg twice daily.
# The half-life in humans is long and is estimated to be approximately 60 hours. […] This is a favorable property for the treatment of Ng, which is, with rare exception, a mucosal pathogen. AR-12 is slowly released from the tissue back into the bloodstream and slowly excreted, which explains its long half-life.
# [3] = Stability at ambient conditions (cGMP material); type: physicochemical
# Excerpt: AR-12 was initially developed by Arno Therapeutics (Arno) in 2008 for an oncology indication. In support of this oncology program, Arno initiated an Investigational New Drug (IND) enabling toxicology program, which included standard Good Laboratory Practice (GLP) tests (e. g. genotoxicity), a battery of safety pharmacology studies, and 28-day general toxicity assessments performed in rats and dogs. Before Arno's involvement, the National Cancer Institute had generated preclinical ADME (i. e., absorption, distribution, metabolism, and excretion) and toxicology data in the mouse model as part of the Rapid Access to Intervention Development (RAID) program. AR-12 synthesis was optimized and scaled-up to approximately 50 kg (purity >99.5%; stability ≥24 months at ambient conditions) under Current Good Manufacturing Practices (cGMP) conditions in anticipation of continued clinical development in the oncology setting.
# [4] = preclinical studies (ref. 36); cited from earlier work
# [5] = test system: Ng invasion of and survival within PEX cells; test: Gentamicin-survival assays: Ng invasion of and survival within PEX cells with estradiol, progesterone, Akt inhibitor; type: cell-based, Neisseria gonorrhoeae
# Protocol: Progesterone (Pg) augments gonococcal invasion of and survival within PEX cells. […] Therefore, to more closely mimic the luteal phase of the menses cycle, when Pg concentrations fluctuate between 3 nM and 30 nM, the effect of Pg on Ng invasion of and survival within PEX cells was evaluated using a gentamicin-survival assays with 0.4 nM of estradiol (E2) and variable concentrations of Pg (FIG. 1)
# Further studies were conducted to determine if Pg augmented the ability of gonococci to survive intracellularly within PEX cells. Following gentamicin treatment (to kill extracellular bacteria), infected cell monolayers were either lysed (releasing the invasive Ng) and serial dilutions were plated, or they were re-incubated in antibiotic free medium for 1 or 3 hours longer before plating the PEX cell lysate and quantitating colony forming units. Akt inhibitor VII was included or omitted from these experiments.
# [6] = by 24 hours post-AR-12 treatment
SMILES,"reduction in viable Ng ([1]; 10 μM AR-12, 3-hour incubation, Ng-infected PEX cells (FIG. 2A))","viable Ng recovered ([1]; 10 μM AR-12, 24 h (FIG. 2C))","reduction of the amount of viable Ng (CFU) compared to an untreated infection ([1]; 10 μM AR-12, after about 6 hours (FIG. 2E))","reduction of the amount of viable Ng (CFU) compared to an untreated infection ([1]; 10 μM AR-12, after about 24 hours (FIG. 2E))","reduction in the number of viable Ng ([1]; AR-12 treatment 6 h, Ng-infected PEX cells (FIG. 2B))","killing of Ng (bactericidal effect) [1, 6] [%]","spontaneous resistance to AR-12 [1, 6]",effectiveness against Ng on agar plates (Ng),"dose limiting toxicities (DLT) ([2]; doses appropriate in the oncology setting, human)","half-life ([2]; human, blood, oral dosage form, Phase I study, estimated, read-out: half-life in humans (converted)) [h]","safety profile ([2]; long-term oral exposures up to 33 weeks, phase I study)","recommended oncology Phase II dose ([2]; original formulation, human) [mg twice daily]",stability [3] [months],accumulation in tissues relative to blood level concentrations [4],blood brain barrier penetration [4],"gonococcal invasion of PEX cells ([5]; 0.4 nM estradiol, variable concentrations of Pg (FIG. 1A))","ability of gonococci to invade, as well as survive within, PEX cells ([5]; presence of Pg, 1 or 3 hours post-invasion (FIG. 1B))"
"NCC(=O)Nc1ccc(-n2nc(C(F)(F)F)cc2-c2ccc3c(ccc4ccccc43)c2)cc1 [AR-12, 2-amino-N-(4-(5-(phenanthren-2-yl)-3-(trifluoromethyl)-1H-pyrazol-1-yl)phenyl)acetamide]",at least 300 fold,no viable Ng were recovered,at least 3 log,at least 7 log,at least 600 fold,100,no spontaneous resistance,not effective,"fatigue, dizziness, and skin rash",~60,acceptable safety profile,800,≥ 24,exceeding the blood level concentrations several fold,rapid blood brain barrier penetration,–,–
"CC(=O)[C@H]1CC[C@H]2[C@@H]3CCC4=CC(=O)CC[C@]4(C)[C@H]3CC[C@]12C [Pg, Progesterone]",–,–,–,–,–,–,–,–,–,–,–,–,–,–,–,increased with increasing concentrations of Pg,enhanced

# — patent publication US10201526B2, “Compositions and methods for inhibiting the growth of neisseria gonorrhoeae” (Research Institute at Nationwide Children's Hospital, priority 2015, dated 2019)
